Patent EP4039264A1, “ORAL PEPTIDE ANTAGONISTS OF MULTIPLE CHEMOKINE RECEPTORS FOR REVERSING LOSS OF SYNAPSES AND DENDRITIC SPINES” (Creative Bio-Peptides Inc., priority 2021, dated 2022)

What was measured:
CXCR4 = CXCR4 (Mus musculus, UniProt P70658); conditions: CXCR4 tropic gp120; cultured mouse hippocampal neurons devoid of immune cells
Description: Aβd/t was isolated from medium of cultured 7PA2 cells, a CHO cell line expressing a form of human APP found in Familial AD. […] Neuronal cultures, fixation, permeabilization, blocking and immunostaining is performed starting with E16.5 mouse hippocampal neurons by common methods in broad use.
Images of fixed neurons immunostained for cofilin, growth cones and nuclei captured across the entire coverslip are exported to ImageJ. Macro functions are applied to set local threshold and shape/size segmentation for both the cofilin and growth cone antibodies. Cofilin stained material that is not within neurites is eliminated. Results are reported as rods/nucleus, number of rods per area, rods as percent of total area, or, if NeuN stained or identified morphologically, rods per neuron.

[1] = HAND phase 2 human trials and brain scans; cited from earlier work
CCR5 [2] = target: T1, CCR5 (Mus musculus, UniProt P51682); assay: gp120-induced cofilin-rod formation in cultured hippocampal neurons, CCR5-tropic gp120 (Fig. 2A); type: cell-based; conditions: cultured mouse hippocampal neurons devoid of immune cells
T1 construct: neurons express CCR5 and CXCR4 receptors that control synapse regeneration; endogenous in cells; host or cells: primary E16.5 mouse hippocampal neurons
T1 sequence (P51682 whole entry): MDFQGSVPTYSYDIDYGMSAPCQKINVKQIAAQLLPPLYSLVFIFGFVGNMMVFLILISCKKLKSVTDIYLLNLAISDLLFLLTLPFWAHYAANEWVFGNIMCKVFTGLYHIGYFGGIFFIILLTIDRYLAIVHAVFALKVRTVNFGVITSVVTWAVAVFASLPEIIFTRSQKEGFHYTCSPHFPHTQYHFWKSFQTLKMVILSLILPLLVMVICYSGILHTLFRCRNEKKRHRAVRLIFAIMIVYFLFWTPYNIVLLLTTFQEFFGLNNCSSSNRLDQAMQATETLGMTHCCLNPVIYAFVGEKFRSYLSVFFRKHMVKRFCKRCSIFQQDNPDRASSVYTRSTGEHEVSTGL

CCR5 [3] = conditions: pharmacologic blockade of CCR5 after stroke and traumatic brain injury; cited from earlier work

Chain of CXCR4 (P70658 whole entry): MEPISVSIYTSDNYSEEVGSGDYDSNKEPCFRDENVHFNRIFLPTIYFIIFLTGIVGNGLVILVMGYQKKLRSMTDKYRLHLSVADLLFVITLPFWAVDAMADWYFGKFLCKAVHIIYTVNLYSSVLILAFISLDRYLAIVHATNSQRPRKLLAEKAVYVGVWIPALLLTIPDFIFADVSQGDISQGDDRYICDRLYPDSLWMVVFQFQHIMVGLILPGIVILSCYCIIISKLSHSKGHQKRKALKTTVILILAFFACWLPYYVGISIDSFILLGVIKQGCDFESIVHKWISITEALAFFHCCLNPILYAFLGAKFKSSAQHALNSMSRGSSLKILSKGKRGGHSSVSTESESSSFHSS

## c1cc(CN2CCCNCCNCCCNCC2)ccc1CN1CCCNCCNCCCNCC1 [AMD3100]
CXCR4
  cofilin-rods formed by neurons treated with gp120: inhibited

## [D-Ala1]-Ser-Thr-Thr-Thr-Asn-Tyr-Thr-NH2 [DAPTA]
[1]
  cognitive deficits: able to reverse cognitive deficits

## Cc1nnc(C(C)C)n1[C@@H]1C[C@H]2CC[C@@H](C1)N2CC[C@H](NC(=O)C1CCC(F)(F)CC1)c1ccccc1 [maraviroc]
CCR5 [2]
  cofilin-rods formed by neurons treated with gp120: inhibited
CCR5 [3]
  dendritic spines and neurite cortical projections: preservation of dendritic spines and new patterns of neurite cortical projections
